Measurements taken from the NIST ThermoML archive (doi:10.1021/je9005757).

Assay: cn = amount concentration of the nth substance listed, in mol/dm3
Conditions: 101 kPa, Liquid; for molar conductivity: Shedlovsky-type conductance cell; for binary diffusion coefficient: Open capillary

CN[C@H](C)[C@@H](O)c1ccccc1.[Cl-].[H+] [D-α-(1-methylaminoethyl)benzyl alcohol] + O
Conditions	binary diffusion coefficient, 298.15 K [m2/s]	binary diffusion coefficient, 310.15 K [m2/s]	molar conductivity, 283.15 K [S·m2/mol]	molar conductivity, 293.15 K [S·m2/mol]	molar conductivity, 298.15 K [S·m2/mol]	molar conductivity, 303.15 K [S·m2/mol]	molar conductivity, 310.15 K [S·m2/mol]	molar conductivity, 323.15 K [S·m2/mol]
c1 = 0.001	1.13e-09	1.57e-09	–	–	–	–	–	–
c1 = 0.001841	–	–	0.006545	0.00844	0.009366	0.01041	0.01201	0.01524
c1 = 0.00244	–	–	0.006422	0.008268	0.009179	0.0102	0.01177	0.01489
c1 = 0.0025	1.12e-09	1.53e-09	–	–	–	–	–	–
c1 = 0.003031	–	–	0.006316	0.008109	0.009034	0.01001	0.01159	0.01469
c1 = 0.003615	–	–	0.006204	0.007973	0.008901	0.009837	0.01141	0.01444
c1 = 0.004193	–	–	0.006101	0.007849	0.008778	0.009703	0.01122	0.01422
c1 = 0.004763	–	–	0.006018	0.007749	0.008675	0.009566	0.01107	0.01401
c1 = 0.005	1.1e-09	1.48e-09	–	–	–	–	–	–
c1 = 0.005327	–	–	0.005942	0.007661	0.008577	0.009439	0.01094	0.01384
c1 = 0.005884	–	–	0.005866	0.00757	0.008481	0.00932	0.01079	0.01368
c1 = 0.006434	–	–	0.005795	0.007486	0.00839	0.009208	0.0107	0.01352
c1 = 0.006978	–	–	0.005725	0.007395	0.008298	0.009099	0.01057	0.01337
c1 = 0.007516	–	–	0.005655	0.00731	0.008205	0.008991	0.01046	0.01322
c1 = 0.008	1.05e-09	1.42e-09	–	–	–	–	–	–
c1 = 0.008048	–	–	0.005593	0.007232	0.00812	0.008893	0.01036	0.01308
c1 = 0.008573	–	–	0.005534	0.007159	0.00804	0.0088	0.01027	0.01295
c1 = 0.009093	–	–	0.005477	0.007089	0.007965	0.008713	0.01018	0.01283
c1 = 0.009607	–	–	0.005427	0.007027	0.007896	0.008633	0.01009	0.01271
c1 = 0.01	1.01e-09	1.38e-09	–	–	–	–	–	–
c1 = 0.01012	–	–	0.005377	0.006966	0.007829	0.008556	0.01001	0.0126
c1 = 0.01062	–	–	0.005329	0.006904	0.007761	0.008478	0.009923	0.01249
c1 = 0.01111	–	–	0.005284	0.006844	0.007695	0.008404	0.009841	0.01238
c1 = 0.01161	–	–	0.005242	0.006785	0.00763	0.008329	0.00976	0.01228
c1 = 0.01209	–	–	0.005196	0.006729	0.007567	0.008257	0.009679	0.01217
c1 = 0.01257	–	–	0.005156	0.006675	0.007501	0.00819	0.009603	0.01208
c1 = 0.01305	–	–	0.005118	0.006626	0.00745	0.008126	0.009532	0.01198
c1 = 0.01352	–	–	0.005078	0.006576	0.007395	0.008064	0.009461	0.01189
c1 = 0.01398	–	–	0.005038	0.006528	0.007343	0.008005	0.009394	0.01181
c1 = 0.01444	–	–	0.005003	0.006483	0.007291	0.007946	0.009328	0.01172
c1 = 0.0149	–	–	0.004966	0.006437	0.007239	0.007888	0.009261	0.01164
c1 = 0.01535	–	–	0.004929	0.00639	0.007188	0.007831	0.009196	0.01155
c1 = 0.01579	–	–	0.004894	0.006343	0.007138	0.007776	0.009132	0.01147
c1 = 0.01623	–	–	0.004861	0.006302	0.00709	0.007722	0.009069	0.01139
c1 = 0.01667	–	–	0.004832	0.006262	0.007045	0.007671	0.00901	0.01132
